We go through 19 compounds from patent US20260265262A1, “CDK2 INHIBITORS AND METHODS OF USING THE SAME” (Cedilla Therapeutics, Inc., priority 2022, published 2026).

Molecules are shown by their SMILES.

For one assay, the system named is Kuramochi cells. Briefly: IncuCyte cell proliferation assay. In kind it is cell-based. The conditions noted are these: Kuramochi cells labeled with mApple-H2B, cell count 0 to 72 hours, 20 μM top concentration; read-out: IncuCyte Kuramochi RB-WT: IC50. In short, it runs like this:
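Kuramochi cells expressing mApple-H2B were treated with a 10-point, ½-log dilution series (top 20 μM). Fluorescent nuclei were counted by IncuCyte imaging at 0 and 72 h. The fold change in cell count was normalized to DMSO wells and fitted to dose-response curves to give […].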

Assay [1] addresses T1, CDK2/Cyclin E1 (Homo sapiens, UniProt P24941). Briefly: CDK2/Cyclin E1 Caliper LabChip EZ Reader mobility shift assay. In kind it is biochemical. The conditions noted are these: 2.5 nM CDK2/Cyclin E1, 100 μM ATP, 1.5 μM fluorescent peptide, 30 min pre-incubation; read-out: Caliper Assay (CDK2/CCNE1): IC50. As to the method: Inhibition of CDK2/Cyclin E1 activity in the presence of compounds of the present disclosure was evaluated using a CaliperLabChip® EZ Reader mobility shift assay. In the assay, CDK2/Cyclin E1 (Eurofins, 14-475) catalyzed the phosphorylation of a fluorescently tagged peptide 5-FAM-QSPKKG-CONH2 (PerkinEliner, FL Peptide 18) which induced a difference in capillary electrophoresis mobility. The peptide substrate and product were measured, and the conversion ratio was used to determine the inhibition (as % activity and IC50 values) of CDK2/Cyclin E1. Reactions contained 50 mM HEPES pH 7.5, 10 mM MgCl2, 1 mM EDTA, 2 mM DTT, 0.01% Brij35, 0.5 mg/mL BSA, 0.1% DMSO, 2.5 nM CDK2/Cyclin E1, 100 μM ATP, and 1.5 μM fluorescent peptide substrate.
Dose titrations of inhibitors in 100% DMSO were combined with 3.25 nM CDK2/Cyclin E1 and 130 μM of ATP in reaction buffer. The mixtures were incubated for 30 minutes before the addition of fluorescent peptide substrate to initiate the kinase reaction. The final conditions were 2.5 nM CDK2/Cyclin E1, 100 μM ATP, and 1.5 μM fluorescent peptide. The reactions were stopped after 100 minutes with the addition of EDTA (400 mM final EDTA concentration). The stopped reactions were analyzed on a Caliper LabChip® EZ Reader II. The conversion ratios were normalized to yield % activity, plotted against compound concentration, and fit to a four-parameter equation to determine the IC50 for each compound.

In assay [2] the target is T1, CDK2/Cyclin E1. Briefly: ADP-Glo Luminescent Kinase Assay (CDK2/E1-37C). It counts as biochemical. To be noted: 0.18 nM CDK2/Cyclin E1, 100 μM ATP, 1.5 μM Histone H1, 37° C., 60 min pre-incubation; read-out: ADPGLO (CDK2/E1-37C): IC50. In short, it runs like this:
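Human CDK2/Cyclin E1 preincubated with inhibitor 60 min at 37 °C, then reacted 90 min at 37 °C with final 0.18 nM enzyme, 100 μM ATP, 1.5 μM Histone H1 in HEPES pH 7.5 buffer. ADP formed read by ADP-Glo luminescence; IC50 from four-parameter fit.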
Background: In ADP-Glo the light output rises with the ADP produced.

With `C[C@@H](OCC1CCC2(CCC2)CC1)[C@H](NC(=O)[C@@H]1CN(C(=O)c2cnn(Cc3ccccc3)c2)CC12CN(C(=O)[C@H]1CC1(C)C)C2)C(=O)O` [Example I-40, N—((S)-6-(1-benzyl-1H-pyrazole-4-carbonyl)-2-((S)-2,2-dimethylcyclopropane-1-carbonyl)-2,6-diazaspiro[3.4]octane-8-carbonyl)-O-(spiro[3.5]nonan-7-ylmethyl)-L-threonine], the IC50 in the assay on Kuramochi cells was over 20 µM; at CDK2/Cyclin E1 [1] it was under 0.01 µM; on CDK2/Cyclin E1 [2], under 0.5 µM.
`COC1CCN(C(=O)[C@@H](NC(=O)[C@@H]2CN(C(=O)c3cncs3)CC23CN(C(=O)[C@H]2CC2(C)C)C3)[C@@H](C)OCC2(CO)CC=CCC2)CC1` (stereo in doubt) [Example I-54]: the IC50 in the assay with Kuramochi cells is 0.5 to 5 µM; on CDK2/Cyclin E1 [1], under 0.01 µM.
With `C[C@@H](OCC1(CO)CC=CCC1)[C@H](NC(=O)[C@@H]1CN(C(=O)c2cncs2)CC12CN(C(=O)[C@H]1CC1(C)C)C2)C(=O)N1CCC(C)(C)CC1` (stereo partly drawn) [Example I-53], the IC50 is under 0.5 µM in the assay on Kuramochi cells and under 0.01 µM at CDK2/Cyclin E1 [1].
For `C[C@@H](OCC1CCCCC1)[C@H](NC(=O)[C@@H]1CN(C(=O)c2cnn(Cc3ccccc3)c2)CC12CN(C(=O)[C@H]1CC1(C)C)C2)C(=O)N1CCC(c2ccc(C(=O)O)cc2)CC1` [Example I-45], the IC50 with Kuramochi cells was 0.5 to 5 µM; on CDK2/Cyclin E1 [1], under 0.01 µM; at CDK2/Cyclin E1 [2], under 0.5 µM.
As for `Cc1nc(C)c(C(=O)N2C[C@@H](C(=O)NC(C(=O)N3CCC(C(F)(F)F)CC3)[C@@H](C)OCC3(CO)CC=CCC3)C3(C2)CN(C(=O)[C@H]2CC2(C)C)C3)s1` (stereo partly drawn) [Example I-50, (8S)-2-((S)-2,2-dimethylcyclopropane-1-carbonyl)-6-(2,4-dimethylthiazole-5-carbonyl)-N-((2S,3R)-3-((1-(hydroxymethyl)cyclohex-3-en-1-yl)methoxy)-1-oxo-1-(4-(trifluoromethyl)piperidin-1-yl)butan-2-yl)-2,6-diazaspiro[3.4]octane-8-carboxamide], the IC50 with Kuramochi cells is 0.5 to 5 µM; on CDK2/Cyclin E1 [1], under 0.01 µM.
As to `C[C@@H](OCC1(CO)CC=CCC1)C(NC(=O)[C@@H]1CN(C(=O)c2cnco2)CC12CN(C(=O)C(C)(C)C1CC1)C2)C(C)(C)O` (single isomer, unassigned) [Example I-57], the IC50 in the assay on Kuramochi cells is over 20 µM; on CDK2/Cyclin E1 [1], 0.1 to 1 µM.
As for `COC1CCN(C(=O)[C@@H](NC(=O)[C@@H]2CN(C(=O)c3sc(C)nc3C)CC23CN(C(=O)[C@H]2CC2(C)C)C3)[C@@H](C)OCC2(CO)CC=CCC2)CC1` (stereo in doubt) [Example I-55], the results for the IC50 with Kuramochi cells and on CDK2/Cyclin E1 [1] were over 20 µM and 0.01 to 0.1 µM, respectively.
Turning to `C[C@@H](OCC12CCC(CC1)OC2)[C@H](NC(=O)[C@@H]1CN(C(=O)c2cncs2)CC12CN(CC1CCCO1)C2)C(=O)N1CCC(c2nccs2)CC1` (stereo partly drawn) [Example I-44, (8S)—N-((2S,3R)-3-((2-oxabicyclo[2.2.2]octan-4-yl)methoxy)-1-oxo-1-(4-(thiazol-2-yl)piperidin-1-yl)butan-2-yl)-2-((tetrahydrofuran-2-yl)methyl)-6-(thiazole-5-carbonyl)-2,6-diazaspiro[3.4]octane-8-carboxamide], the IC50 in the assay on Kuramochi cells is over 20 µM; on CDK2/Cyclin E1 [1], over 10 µM; at CDK2/Cyclin E1 [2], over 100 µM.
The matching figures for `CNC(=O)[C@@H](NC(=O)[C@@H]1CN(C(=O)c2cncs2)CC12CN(CC1CCCO1)C2)[C@@H](C)OCC1(CO)CC=CCC1` (stereo partly drawn) [Example I-49]: over 20 µM, 0.1 to 1 µM and over 10 µM.
Turning to `COC(=O)C1(CNC(=O)[C@@H](NC(=O)[C@@H]2CN(C(=O)c3cnn(Cc4ccccc4)c3)CC23CN(C(=O)[C@H]2CC2(C)C)C3)[C@@H](C)OCC2CCCCC2)CC1` [Example I-39], the IC50 is under 0.5 µM in the assay on Kuramochi cells, under 0.01 µM on CDK2/Cyclin E1 [1] and under 0.5 µM at CDK2/Cyclin E1 [2].
Take `CCOC(=O)C(F)(F)CNC(=O)[C@@H](NC(=O)[C@@H]1CN(C(=O)c2cnn(Cc3ccccc3)c2)CC12CN(C(=O)[C@H]1CC1(C)C)C2)[C@@H](C)OCC1CCCCC1` [Example I-47, ethyl 3-((2S,3R)-2-((S)-6-(1-benzyl-1H-pyrazole-4-carbonyl)-2-((S)-2,2-dimethylcyclopropane-1-carbonyl)-2,6-diazaspiro[3.4]octane-8-carboxamido)-3-(cyclohexylmethoxy)butanamido)-2,2-difluoropropanoate]: the IC50 in the assay on Kuramochi cells was 5 to 20 µM; on CDK2/Cyclin E1 [1], under 0.01 µM; at CDK2/Cyclin E1 [2] it was under 0.5 µM.
On to `C[C@@H](OCC1CCCCC1)[C@H](NC(=O)[C@@H]1CN(C(=O)c2cnn(Cc3ccccc3)c2)CC12CN(C(=O)[C@H]1CC1(C)C)C2)C(=O)N1CCC[C@@H](C(=O)O)C1` [Example I-46], for which the IC50 in the assay on Kuramochi cells was over 20 µM; on CDK2/Cyclin E1 [1], under 0.01 µM; on CDK2/Cyclin E1 [2], under 0.5 µM.
On to `Cc1nc(C)c(C(=O)N2C[C@@H](C(=O)NC([C@@H](C)OCC3(CO)CC=CCC3)C(C)(C)O)C3(C2)CN(C(=O)C(C)(C)C2CC2)C3)s1` (stereo partly drawn) [Example I-56, (8S)-2-(2-cyclopropyl-2-methylpropanoyl)-6-(2,4-dimethylthiazole-5-carbonyl)-N-((4R)-2-hydroxy-4-((1-(hydroxymethyl)cyclohex-3-en-1-yl)methoxy)-2-methylpentan-3-yl)-2,6-diazaspiro[3.4]octane-8-carboxamide], for which the values for the IC50 with Kuramochi cells and on CDK2/Cyclin E1 [1] were over 20 µM and 1 to 10 µM, respectively.
`COC[C@H]1CCCN(C(=O)[C@@H](NC(=O)[C@H]2CN(C(=O)c3cncs3)CC23CN(C(=O)[C@H]2CC2(C)C)C3)[C@@H](C)OCC2CCCCC2)C1` [Example I-116, (R)—N-((2S,3R)-3-(cyclohexylmethoxy)-1-((S)-3-(methoxymethyl)piperidin-1-yl)-1-oxobutan-2-yl)-2-((S)-2,2-dimethylcyclopropanecarbonyl)-6-(thiazole-5-carbonyl)-2,6-diazaspiro[3.4]octane-8-carboxamide]: the IC50 in the assay with Kuramochi cells was in the range of 5 to 20 µM; at CDK2/Cyclin E1 [1] it was 0.1 to 1 µM.
Regarding `Cc1nc(C)c(C(=O)N2C[C@@H](C(=O)N[C@H](C(=O)N3CCC(OC(F)(F)F)CC3)[C@@H](C)OCC3(CO)CC=CCC3)C3(C2)CN(C(=O)[C@H]2CC2(C)C)C3)s1` (stereo in doubt) [Example I-51], the values for the IC50 in the assay on Kuramochi cells and on CDK2/Cyclin E1 [1] were 0.5 to 5 µM and 0.01 to 0.1 µM, respectively.
In the case of `C[C@@H](OCC12CCC(CC1)OC2)[C@H](NC(=O)[C@@H]1CN(C(=O)c2cnc(O)cn2)CC12CN(C(=O)C1(C(F)(F)F)CC1)C2)C(=O)N1CCC(c2ccc(C(=O)O)c(C(F)(F)F)c2)CC1` [I-89 1st, 4-(1-(O-((2-oxabicyclo[2.2.2]octan-4-yl)methyl)-N—((S)-6-(5-hydroxypyrazine-2-carbonyl)-2-(1-(trifluoromethyl)cyclopropane-1-carbonyl)-2,6-diazaspiro[3.4]octane-8-carbonyl)-L-threonyl)piperidin-4-yl)-2-(trifluoromethyl)benzoic acid], the IC50 was over 20 µM with Kuramochi cells and over 10 µM on CDK2/Cyclin E1 [2].
The matching figures for `C[C@@H](OCC12CCC(CC1)OC2)[C@H](NC(=O)[C@@H]1CN(C(=O)c2cnn(Cc3ccc(C(F)(F)F)cc3)c2)CC12CN(C(=O)C1(C(F)(F)F)CC1)C2)C(=O)NS(=O)(=O)c1ccc(F)cc1` [Example I-85, (S)—N-((2S,3R)-3-((2-oxabicyclo[2.2.2]octan-4-yl)methoxy)-1-((4-fluorophenyl)sulfonamido)-1-oxobutan-2-yl)-6-(1-(4-(trifluoromethyl)benzyl)-1H-pyrazole-4-carbonyl)-2-(1-(trifluoromethyl)cyclopropane-1-carbonyl)-2,6-diazaspiro[3.4]octane-8-carboxamide]: over 20 µM and under 0.5 µM.
With `C[C@@H](OCC12CCC(CC1)OC2)[C@H](NC(=O)[C@@H]1CN(C(=O)c2cnn(Cc3ccc(C(F)(F)F)cc3)c2)CC12CN(C(=O)C1(C(F)(F)F)CC1)C2)C(=O)N1CCC(c2cc(F)c(C(=O)O)c(F)c2)CC1` [Example I-94], the figures for the IC50 with Kuramochi cells and at CDK2/Cyclin E1 [2] were over 20 µM and under 0.5 µM, respectively.
Consider `CNC(=O)C(NC(=O)[C@@H]1CN(C(=O)c2cncs2)CC12CN(CC1CCCO1)C2)[C@@H](C)OCC12CCC(CC1)OC2` (stereo partly drawn) [Example I-59, (8S)—N-((3R)-3-((2-oxabicyclo[2.2.2]octan-4-yl)methoxy)-1-(methylamino)-1-oxobutan-2-yl)-2-((tetrahydrofuran-2-yl)methyl)-6-(thiazole-5-carbonyl)-2,6-diazaspiro[3.4]octane-8-carboxamide], for which the IC50 fell in the range of 5 to 20 µM in the assay on Kuramochi cells and 0.1 to 1 µM at CDK2/Cyclin E1 [1].
